# Laboratory results taken from US6638973B2, “Taxane formulations” (FSU Research Foundation, Inc., priority 2000, dated 2003).
# Where two headings read alike, the source gives them in different places.
# Test system: HCT116 cells
# Assay: In vitro cytotoxicity measured by the cell colony formation assay
# Format: cell-based
# Settings: colonies counted after 7 days, read-out: IN VITRO ID 50 (nm) HCT116
# How it was run: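 Colony-forming survival was scored 7 days after a 72 h, 37 °C compound exposure followed by washout into fresh medium.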
# [1] = HCT116 colony formation, 72 h drug incubation, Example 10, C-10 ester/C-7 hydroxy taxanes
# [2] = HCT116 cells, 72 h incubation with drug, ID50 = drug concentration producing 50% inhibition of colony formation
# [3] = HCT116 colony formation, 72 h drug incubation, Example 5, C-7 ester/C-10 hydroxy taxanes
# [4] = HCT116 colony formation, 72 h drug incubation, Example 20, C-10 substituted acetate/C-7 hydroxy taxanes
smiles,measurement,setting,value
C/C=C/C(=O)N[C@@H](c1ccoc1)[C@@H](O)C(=O)O[C@H]1C[C@@]2(O)[C@@H](OC(=O)c3ccccc3)C3[C@](C)(C(=O)[C@H](OC(=O)CC)C(=C1C)C2(C)C)[C@@H](O)C[C@H]1OC[C@@]31OC(C)=O (stereo partly drawn) [Compound 4888],IC50,[1],< 1 nM
CCCC(=O)N[C@@H](c1cccs1)[C@@H](O)C(=O)O[C@H]1C[C@@]2(O)[C@@H](OC(=O)c3ccccc3)C3[C@](C)(C(=O)[C@H](OC(=O)OCC)C(=C1C)C2(C)C)[C@@H](O)C[C@H]1OC[C@@]31OC(C)=O (stereo partly drawn) [Compound 3155],IC50,[2],< 1 nM
CCOC(=O)O[C@H]1C(=O)[C@@]2(C)C([C@H](OC(=O)c3ccccc3)[C@]3(O)C[C@H](OC(=O)[C@H](O)[C@@H](NC(=O)OC(C)(C)C)C4CC4)C(C)=C1C3(C)C)[C@]1(OC(C)=O)CO[C@@H]1C[C@@H]2O (stereo partly drawn) [Compound 5171],IC50,[2],< 1 nM
CCCC(=O)O[C@H]1C[C@H]2OC[C@@]2(OC(C)=O)C2[C@H](OC(=O)c3ccccc3)[C@]3(O)C[C@H](OC(=O)[C@H](O)[C@@H](NC(=O)OC(C)(C)C)c4ccsc4)C(C)=C([C@@H](O)C(=O)[C@@]21C)C3(C)C (stereo partly drawn) [Compound 4446],IC50,[3],< 1 nM
CCCC(=O)O[C@H]1C[C@H]2OC[C@@]2(OC(C)=O)C2[C@H](OC(=O)c3ccccc3)[C@]3(O)C[C@H](OC(=O)[C@H](O)[C@@H](NC(=O)c4cccs4)c4cccs4)C(C)=C([C@@H](O)C(=O)[C@@]21C)C3(C)C (stereo partly drawn) [Compound 4454],IC50,[3],< 1 nM
C/C=C/C(=O)N[C@@H](c1cccs1)[C@@H](O)C(=O)O[C@H]1C[C@@]2(O)[C@@H](OC(=O)c3ccccc3)C3[C@](C)(C(=O)[C@H](O)C(=C1C)C2(C)C)[C@@H](OC(=O)CC)C[C@H]1OC[C@@]31OC(C)=O (stereo partly drawn) [Compound 3560],IC50,[3],< 1 nM
COC(=O)O[C@H]1C(=O)[C@@]2(C)C([C@H](OC(=O)c3ccccc3)[C@]3(O)C[C@H](OC(=O)[C@H](O)[C@@H](NC(=O)OC(C)(C)C)c4ccccn4)C(C)=C1C3(C)C)[C@]1(OC(C)=O)CO[C@@H]1C[C@@H]2O (stereo partly drawn) [Compound 2002],IC50,[2],< 1 nM
C/C=C/C(=O)N[C@@H](c1ccsc1)[C@@H](O)C(=O)O[C@H]1C[C@@]2(O)[C@@H](OC(=O)c3ccccc3)C3[C@](C)(C(=O)[C@H](O)C(=C1C)C2(C)C)[C@@H](OC(=O)OC)C[C@H]1OC[C@@]31OC(C)=O (stereo partly drawn) [Compound 4969],IC50,[2],< 1 nM
CCC(=O)O[C@H]1C[C@H]2OC[C@@]2(OC(C)=O)C2[C@H](OC(=O)c3ccccc3)[C@]3(O)C[C@H](OC(=O)[C@H](O)[C@@H](NC(=O)OCC(C)C)c4ccoc4)C(C)=C([C@@H](O)C(=O)[C@@]21C)C3(C)C (stereo partly drawn) [Compound 4787],IC50,[3],< 10 nM
CC(=O)O[C@@]12CO[C@@H]1C[C@H](O)[C@@]1(C)C(=O)[C@H](OC(=O)C3CC3)C3=C(C)[C@@H](OC(=O)[C@H](O)[C@@H](NC(=O)OCC(C)C)c4ccoc4)C[C@@](O)([C@@H](OC(=O)c4ccccc4)C12)C3(C)C (stereo partly drawn) [Compound 4665],IC50,[1],< 10 nM
CCC(=O)O[C@H]1C[C@H]2OC[C@@]2(OC(C)=O)C2[C@H](OC(=O)c3ccccc3)[C@]3(O)C[C@H](OC(=O)[C@H](O)[C@@H](NC(=O)OC=C(C)C)c4ccco4)C(C)=C([C@@H](O)C(=O)[C@@]21C)C3(C)C (stereo partly drawn) [Compound 6171],IC50,[3],< 10 nM
CCC(=O)O[C@H]1C(=O)[C@@]2(C)C([C@H](OC(=O)c3ccccc3)[C@]3(O)C[C@H](OC(=O)[C@H](O)[C@@H](NC(=O)c4cccs4)c4ccco4)C(C)=C1C3(C)C)[C@]1(OC(C)=O)CO[C@@H]1C[C@@H]2O (stereo partly drawn) [Compound 3644],IC50,[1],< 1 nM
CCCC(=O)O[C@H]1C[C@H]2OC[C@@]2(OC(C)=O)C2[C@H](OC(=O)c3ccccc3)[C@]3(O)C[C@H](OC(=O)[C@H](O)[C@@H](NC(=O)OC(C)(C)C)C4CC4)C(C)=C([C@@H](O)C(=O)[C@@]21C)C3(C)C (stereo partly drawn) [Compound 5080],IC50,[3],< 1 nM
CCOC(=O)N[C@@H](c1ccco1)[C@@H](O)C(=O)O[C@H]1C[C@@]2(O)[C@@H](OC(=O)c3ccccc3)C3[C@](C)(C(=O)[C@H](OC(=O)CC)C(=C1C)C2(C)C)[C@@H](O)C[C@H]1OC[C@@]31OC(C)=O (stereo partly drawn) [Compound 3535],IC50,[1],< 1 nM
CCOC(=O)O[C@H]1C[C@H]2OC[C@@]2(OC(C)=O)C2[C@H](OC(=O)c3ccccc3)[C@]3(O)C[C@H](OC(=O)[C@H](O)[C@@H](NC(=O)OC(C)(C)C)C4CC4)C(C)=C([C@@H](O)C(=O)[C@@]21C)C3(C)C (stereo partly drawn) [Compound 5165],IC50,[2],< 1 nM
CCCC(=O)O[C@H]1C[C@H]2OC[C@@]2(OC(C)=O)C2[C@H](OC(=O)c3ccccc3)[C@]3(O)C[C@H](OC(=O)[C@H](O)[C@@H](NC(=O)OC(C)C)c4cccs4)C(C)=C([C@@H](O)C(=O)[C@@]21C)C3(C)C (stereo partly drawn) [Compound 4135],IC50,[3],< 1 nM
CC(=O)O[C@@]12CO[C@@H]1C[C@H](O)[C@@]1(C)C(=O)[C@H](OC(=O)C3CC3)C3=C(C)[C@@H](OC(=O)[C@H](O)[C@@H](NC(=O)OC(C)(C)C)c4ccsc4)C[C@@](O)([C@@H](OC(=O)c4ccccc4)C12)C3(C)C (stereo partly drawn) [Compound 2794],IC50,[1],< 1 nM
C/C=C/C(=O)N[C@@H](c1ccoc1)[C@@H](O)C(=O)O[C@H]1C[C@@]2(O)[C@@H](OC(=O)c3ccccc3)C3[C@](C)(C(=O)[C@H](O)C(=C1C)C2(C)C)[C@@H](OC(=O)CC)C[C@H]1OC[C@@]31OC(C)=O (stereo partly drawn) [Compound 4898],IC50,[3],< 1 nM
CCC(C)(C)OC(=O)N[C@@H](c1ccco1)[C@@H](O)C(=O)O[C@H]1C[C@@]2(O)[C@@H](OC(=O)c3ccccc3)C3[C@](C)(C(=O)[C@H](O)C(=C1C)C2(C)C)[C@@H](OC(=O)COC(C)=O)C[C@H]1OC[C@@]31OC(C)=O (stereo partly drawn) [Compound 6353],IC50,"HCT116 colony formation, 72 h drug incubation, Example 15, C-7 substituted acetate/C-10 hydroxy taxanes",< 1 nM
CCOC(=O)O[C@H]1C[C@H]2OC[C@@]2(OC(C)=O)C2[C@H](OC(=O)c3ccccc3)[C@]3(O)C[C@H](OC(=O)[C@H](O)[C@@H](NC(=O)OC(C)C)c4cccs4)C(C)=C([C@@H](O)C(=O)[C@@]21C)C3(C)C (stereo partly drawn) [Compound 4151],IC50,[2],< 1 nM
CCC(C)(C)OC(=O)N[C@@H](c1ccco1)[C@@H](O)C(=O)O[C@H]1C[C@@]2(O)[C@@H](OC(=O)c3ccccc3)C3[C@](C)(C(=O)[C@H](OC(=O)COC(C)=O)C(=C1C)C2(C)C)[C@@H](O)C[C@H]1OC[C@@]31OC(C)=O (stereo partly drawn) [Compound 6577],IC50,[4],< 1 nM
CC(=O)O[C@@]12CO[C@@H]1C[C@H](O)[C@@]1(C)C(=O)[C@H](OC(=O)C3CC3)C3=C(C)[C@@H](OC(=O)[C@H](O)[C@@H](NC(=O)OCC(C)C)c4ccco4)C[C@@](O)([C@@H](OC(=O)c4ccccc4)C12)C3(C)C (stereo partly drawn) [Compound 3102],IC50,[1],< 1 nM
CCCC(=O)O[C@H]1C(=O)[C@@]2(C)C([C@H](OC(=O)c3ccccc3)[C@]3(O)C[C@H](OC(=O)[C@H](O)[C@@H](NC(=O)OCC(C)C)c4ccsc4)C(C)=C1C3(C)C)[C@]1(OC(C)=O)CO[C@@H]1C[C@@H]2O (stereo partly drawn) [Compound 4834],IC50,[1],< 10 nM
CCOC(=O)O[C@H]1C[C@H]2OC[C@@]2(OC(C)=O)C2[C@H](OC(=O)c3ccccc3)[C@]3(O)C[C@H](OC(=O)[C@H](O)[C@@H](NC(=O)OC(C)(C)C)c4ccoc4)C(C)=C([C@@H](O)C(=O)[C@@]21C)C3(C)C (stereo partly drawn) [Compound 4464],IC50,[2],< 1 nM
CC(=O)OC12COC1CC(O)C1(C)C(=O)C(OC(=O)c3ccco3)C3=C(C)C(OC(=O)C(O)C(NC(=O)OC(C)(C)C)c4ccccc4)CC(O)(C(OC(=O)c4ccccc4)C21)C3(C)C (stereo not drawn) [Compound 2212],IC50,[1],< 10 nM
C/C=C/C(=O)O[C@H]1C(=O)[C@@]2(C)C([C@H](OC(=O)c3ccccc3)[C@]3(O)C[C@H](OC(=O)[C@H](O)[C@@H](NC(=O)OC(C)(C)C)c4cccs4)C(C)=C1C3(C)C)[C@]1(OC(C)=O)CO[C@@H]1C[C@@H]2O (stereo partly drawn) [Compound 2392],IC50,[1],< 1 nM
CCOC(=O)O[C@H]1C(=O)[C@@]2(C)C([C@H](OC(=O)c3ccccc3)[C@]3(O)C[C@H](OC(=O)[C@H](O)[C@H](C=C(C)C)NC(=O)OC(C)(C)C)C(C)=C1C3(C)C)[C@]1(OC(C)=O)CO[C@@H]1C[C@@H]2O (stereo partly drawn) [Compound 1781],IC50,[2],< 1 nM
CCCC(=O)O[C@H]1C[C@H]2OC[C@@]2(OC(C)=O)C2[C@H](OC(=O)c3ccccc3)[C@]3(O)C[C@H](OC(=O)[C@H](O)[C@@H](NC(=O)OCC(C)C)c4ccoc4)C(C)=C([C@@H](O)C(=O)[C@@]21C)C3(C)C (stereo partly drawn) [Compound 4828],IC50,[3],< 10 nM
CCCC(=O)O[C@H]1C[C@H]2OC[C@@]2(OC(C)=O)C2[C@H](OC(=O)c3ccccc3)[C@]3(O)C[C@H](OC(=O)[C@H](O)[C@@H](NC(=O)OCC(C)C)C4CC4)C(C)=C([C@@H](O)C(=O)[C@@]21C)C3(C)C (stereo partly drawn) [Compound 5202],IC50,[3],< 10 nM
C/C=C/C(=O)O[C@H]1C[C@H]2OC[C@@]2(OC(C)=O)C2[C@H](OC(=O)c3ccccc3)[C@]3(O)C[C@H](OC(=O)[C@H](O)[C@@H](NC(=O)OC(C)(C)C)c4cccs4)C(C)=C([C@@H](O)C(=O)[C@@]21C)C3(C)C (stereo partly drawn) [Compound 6686],IC50,[3],< 1 nM
CCC(=O)O[C@H]1C[C@H]2OC[C@@]2(OC(C)=O)C2[C@H](OC(=O)c3ccccc3)[C@]3(O)C[C@H](OC(=O)[C@H](O)[C@@H](NC(=O)OCC(C)C)c4cccs4)C(C)=C([C@@H](O)C(=O)[C@@]21C)C3(C)C (stereo partly drawn) [Compound 3232],IC50,[3],< 1 nM
C/C=C/C(=O)N[C@@H](c1ccco1)[C@@H](O)C(=O)O[C@H]1C[C@@]2(O)[C@@H](OC(=O)c3ccccc3)C3[C@](C)(C(=O)[C@H](OC(=O)COC)C(=C1C)C2(C)C)[C@@H](O)C[C@H]1OC[C@@]31OC(C)=O (stereo partly drawn) [Compound 6066],IC50,[4],< 1 nM
COC(=O)O[C@H]1C[C@H]2OC[C@@]2(OC(C)=O)C2[C@H](OC(=O)c3ccccc3)[C@]3(O)C[C@H](OC(=O)[C@H](O)[C@@H](NC(=O)C=C(C)C)c4cccs4)C(C)=C([C@@H](O)C(=O)[C@@]21C)C3(C)C (stereo partly drawn) [Compound 4244],IC50,[2],< 1 nM
